Measurements: article PMC11982498 (Redox Biology, 2025)

Tests used:
[1] = system: SH-SY5Y cells; test: JC-1 / Mito-tracker / H2DCFDA / Ca2+ staining in Aβ1-42 induced cell model; format: cell-based; details: 25 μM Aβ1-42 induced model
Procedure: SH-SY5Y cells were plated on 96 well plates. After 24h treatment with or without B14 in 25 μM Aβ1-42 induced cell model, the cells were washed for three times with cold PBS. Then cells were incubated with Hoechst 33342 solution (Sigma, 10 μg/mL) and H2DCFDA probe (10 μM, sigma), as well as Mito-tracker deep red (100 nM, sigma) for 10 min at 37 °C in the dark. All the samples were photographed by using FV3000 (Olympus). SH-SY5Y cells were plated on 6 well plates. After 24h treatment with B14 in 25 μM Aβ1-42 induced cell model, cells were incubated with JC-1 (5 μg/mL, sigma) for 30 min at 37 °C in the dark. Fluorescence detection was carried out by using EVOS FL Auto.

[2] = system: APP/PS1 transgenic mice; test: Novel object recognition (NOR); format: in vivo; details: B14 10, 20, 40 mg/kg i.p. every other day
Source text: (§1) Five months old male APP/PS1 mice, weighing 25–33 g, were purchased from Guangdong Medical Laboratory Animal Center and housed in the Laboratory Animal Center of Sun Yat-sen University (Guangzhou, China) for experimentation. All procedures were approved by the Animal Care and Use Committee of Sun Yat-sen University and complied with legal requirements and national guidelines for the care and maintenance of laboratory animals (Approval No. SYSU-IACUC-2024-002032). The mice were housed in a specific pathogen-free environment with a controlled temperature of 22 ± 1 °C and a 12-h dark/light cycle. The mice were fed with a standard diet, and 30 mice were randomly divided into 6 groups (N = 5). Compound B14 was dissolved in saline and administered at doses of 10, 20, or 40 mg/kg. […]
(§2) The spatial memory and learning abilities of the mice were assessed using Morris water maze (MWM), novel object recognition (NOR) and nesting experiments (NBT). The anxiety and depressive behaviors were evaluated through the open field test (OFT) and elevated plus maze (EPM). […]
The novel object recognition (NOR) test evaluates mice's memory for familiar objects and their exploration of novel objects. […] The time spent exploring each object was recorded. The mice's learning and memory abilities were assessed by calculating the preference index (PI) using the formula PI = tB / (tA1 + tB).

[3] = system: BCL-2, C-MYC and VEGF protein expressions in SH-SY5Y cells; test: Western blot in SH-SY5Y cells; format: cell-based; details: increasing concentration of B14, 24 h
Procedure: (§3) Protein samples (25–40 μg) were separated using 10 % SDS-PAGE and subsequently transferred onto PVDF membranes (0.22 μm, Servicebio, Guangzhou, China) via electro transfer. Following blocking with TBST solution (Servicebio, Guangzhou, China) containing 5 % BSA (Solarbio, Beijing, China) for approximately 60 min at room temperature, the membrane was exposed to various primary antibodies overnight at 4 °C on a rotating shaker. Then, the membranes were incubated with HRP-conjugated secondary antibody (Affinity, Changzhou, China) for 2 h. Protein bands were then detected using an ECL kit. The signal intensity of each target protein was quantified using Image J 1.8.0 software (Bio-Rad Laboratories, California, USA).
Primary antibodies for Western blot analysis include BCL-2 (affinity biosciences OH, Cat# AF6139, USA), BAX (affinity biosciences OH, Cat# AF0120, USA), VEGF (affinity biosciences OH, Cat# AF5131, USA), C-MYC (affinity biosciences OH, Cat# AF0358, USA), Caspase9 (affinity biosciences OH, Cat# AF6348, USA), cleaved-Caspase9 (affinity biosciences OH, Cat# AF5240, USA), Caspase3 (affinity biosciences OH, Cat# AF6311, USA), cleaved-Caspase3 (affinity biosciences OH, Cat# AF7022, USA), and Cyto-C (affinity biosciences OH, Cat# AF6139, USA).

[4] = system: BCL-2, BAX, Cyto-C, Cleaved-caspase 9, Cleaved-caspase 3 in hippocampus of APP/PS1 mice; test: Western blot and immunofluorescence of apoptosis related factors in hippocampus; format: in vivo; details: B14 10, 20, 40 mg/kg i.p. every other day
Procedure: as §3
as §1, with “cycle.” for “cycle. The mice were fed with a standard diet, and 30 mice were randomly divided into 6 groups (N = 5). Compound B14 was dissolved in saline and administered at doses of 10, 20, or 40 mg/kg.”

[5] = system: GFAP, Iba-1, NF-κB, TNF-α and IL-6 in hippocampus of APP/PS1 mice; test: Neuroinflammation markers in hippocampus; format: in vivo
Procedure: as §3
as §1, with “cycle.” for “cycle. The mice were fed with a standard diet, and 30 mice were randomly divided into 6 groups (N = 5). Compound B14 was dissolved in saline and administered at doses of 10, 20, or 40 mg/kg.”

[6] = system: APP/PS1 transgenic mice; test: Morris water maze (MWM); format: in vivo; details: B14 10, 20, 40 mg/kg i.p. every other day; vs model group
Source text: as §1, §2
Morris water maze (MWM) system consisted of a heated circular pool, a target platform, and a video capture with analysis system. […] The time taken to find the platform (latency) was recorded. […] The platform was removed, and the mice were monitored for 60 seconds. […]

[7] = target: (G2C4)6 promoter i-motif; test: SPR binding to (G2C4)6 promoter i-motif; details: MES buffer pH 5.5

Structure (SMILES): O=C(CCN1CCOCC1)Nc1ccc2c(c1)c(=O)c1cc(NC(=O)CCN3CCOCC3)ccc1n2-c1ccc2occc2c1 [Compound B14]
- intracellular Ca^2+ (Fluo-5AM) [1]: could modulate aberrantly metabolized Ca^2+ in model cells in a dose-dependent manner
- oxidative stress (H2DCFDA) and mitochondrial number (MitoTracker) [1]: could attenuate oxidative stress without changing mitochondrial number
- red/green fluorescence intensity ratio (JC-1, mitochondrial membrane potential) [1]: could reduce the occurrence of early apoptosis
- times to touch new objects and index of preference (NOR) [2]: significantly increased
- BCL-2 translation (Western blot) [3]: up-regulate BCL-2 translation in SH-SY5Y cells in a dose-dependent manner
- C-MYC and VEGF expression (Western blot) [3]: without significant effect on C-MYC and VEGF expression
- expression level of BCL-2 in hippocampus [4]: effectively increased the expression level of BCL-2
- expression levels of pro-apoptotic factors in hippocampus [4]: decreased the expression levels of BAX, Cyto-C, Cleaved-caspase 9 and Cleaved-caspase 3
- activation of astrocytes (GFAP) and microglia (Iba-1) [5]: reduce the activations of astrocytes
- expressions of inflammatory factors [5]: decrease the expressions of the inflammatory factors NF-κB, TNF-α and IL-6
- escape latency (MWM) [6]: significantly short
- number for the mice to cross the platform (MWM) [6]: significantly increased
- Kd [7]: 33.3 µM
